Assay results: patent publication US4835160A, “Derivatives of pyridoindole, having anti-tumor properties” (Sanofi, priority 1986, dated 1989)
Like-named read-outs stand apart in the source and are kept apart here.

How the values were obtained:
[1] = tested on: leukemia tumour line L 1210; experiment: In vitro cytotoxic activity on leukemia tumour line L 1210; assay type: cell-based; conditions: L 1210, 48 hours contact, 37° C., read-out: I D 50 (concentration which inhibits the proliferation of the cells by 50%)
Description: (1) In vitro: ([…] et al., Chem. Biol. Interaction, 1979, 25, 45-58). The cytotoxic activity of the compounds of the invention has been evaluated by in vitro tests. These tests consist of adding increasing concentrations of the compound under test to a cellular culture of the leukemia tumour line L 1210 in an exponential phase of growth. The cellules are incubated at 37° C. in a CO2 incubator and counted every 24 hours. The calculation of the I D 50 (concentration of the product, expressed in 1^-1 micromole, which inhibits the proliferation of the cells by 50%) is made after 48 hours contact.

leukemia P 388 = experiment: Test of leukemia P 388; IP/IP, D1-5; assay type: in vivo, CDF1 hybrid mice; conditions: D1-D5; for Number of survivors: day D30; for T/C %: survival time
Description: (2) In vivo: (GERAN et al., Cancer Chemother., 1972, 2, 07-57):
(§1) The antitumour activity was tested in vivo on various tumours inoculated in various ways according to the following general protocol:
(§2) All the male or female mice are inoculated on day D0 with a known quantity of viable tumour cells for ascitic tumours or with a known tumour fragment for solid tumours.
(§3) They are then distributed into various groups. Each group, corresponding to the animals treated by the product under test, is made up of 10 mice. The product under test is dissolved in distilled water and it is administered n times (Dx-Dy), n, y, and x varying according to the protocol chosen, at the rate of 0.1 ml of solution per 10 g by weight of mice treated and at specific doses for each protocol.
(§4) The "negative control" group, corresponding to the animals which are not treated by the product, contains 2√N animals, N being equal to or greater than the total number of mice treated by the product in the same experiment.
(§5) Finally, the tests can also be carried out at the same time as the study of a group called "positive control", of ten animals, which is treated by a molecule, known for its antitumour activity and which can vary according to the protocol chosen, in the same conditions as the groups treated by the product under test.
(§6) The antitumour activity is evaluated, in the case of ascitic tumours, by considering the increase in the survival time of the animals treated in comparison to that of the animals in the "negative control" group, according to the formula: [formula]
The criterion for activity varies according to the protocol.
(§7) Also, a product is considered as toxic at the dose studied when this T/C value is equal to or less than 85%. In addition, a product is also considered as toxic at the dose studied when the weight variation, expressed in grams and calculated by the formula: […]
"Average weight of the group measured on day 5--Average weight of the same group measured on day 1"
is equal to or less than 4 g.
(a) Test of lelukemia P 388; IP/IP, D1-5 (GERAN et al., Cancer Chemother., 1972, 2, 07-57).
The tests are carried out with CDF1 hybrid mice inoculated by intraperitoneal route with 10^6 leukemia cells from the P 388 line. The compound under test is administered for 5 successive days (D1-D5) by intraperitoneal route. The positive control for the test is 5-fluorouracile which is administered in the same conditions. The number of surviving animals is evaluated on day D30.

melanoma B 16 = experiment: Test for melanoma B 16; assay type: in vivo, BDF1 hybrid mice; conditions: D1-D9; for Number of survivors: day D60; for T/C %: survival time
Description: as §1, §2, §3, §4, §5, §6, §7
(d) Test for melanoma B 16 (GERAN et al., Cancer Chemother., 1972, 2, 07-75).
The tests are carried out with BDF1 hybrid mice inoculated by intraperitoneal route with 0.5 ml of a homogenate of melanoma B 16 made up from 1 g of tumour in 10 ml of physiological serum. The compound under test is administered for 9 days (D1-D9) by intraperitoneal route. The positive control for the test is Cis-Platine administered in the same conditions. The number of surviving animals is evaluated on day D60.

in vivo = experiment: in vivo; parameters: species or system CDF1 hybrid mice; conditions: mouse, ip
Excerpt: The compounds of the invention benefit from a good tolerance and a weak toxicity.
Thus the administration, to healthy CDF1 hybrid mice, in a single injection by intraperitoneal route, of the compounds under test, has enabled it to be established that the product is perfectly tolerated at a high dosage since the survival rate of the animals of the experiment was 100 out of 100 thirteen days after administration.

reticulosarcoma M5-M5076 = experiment: Test for reticulosarcoma M5-M5076; assay type: in vivo, BDF1 hybrid mice; conditions: 50 mg/kg IP, D1,5,9,13,17
Description: as §1, §2, §3, §4, §5, §6, §7
The tests are carried out with BDF1 hybrid mice inoculated by intraperitoneal route with 10^6 cells of the M5-M5076 line. The compound under test is administered 5 times successively in sequence (D1,5,9,13,17) by intraperitoneal route. The positive control for the test is cyclophosphamide administered in the same conditions. The number of surviving animals is evaluated on day D75.

## CCN(CC)CCCNc1ncc(C)c2[nH]c3ccc(O)cc3c12 [Derivative No. 8, 1-(diethylaminopropylamino)-8-hydroxy-4-methyl-5H-pyrido[4,3-b]indole]
[1]
  IC50: 80 nM
Leukemia P 388; 0.625 mg/kg IP
  Median day of survival: 15.1 days
  Variation by weight: -0.5 g
  Number of survivors: 0/10
  T/C %: 136%
Leukemia P 388; 1.25 mg/kg IP
  Median day of survival: 15.7 days
  Variation by weight (g): +0.6 g
  Number of survivors: 0/10
  T/C %: 141%
Leukemia P 388; 2.5 mg/kg IP
  Median day of survival: 16.1 days
  Variation by weight: -1.2 g
  Number of survivors: 0/10
  T/C %: 147%
Leukemia P 388; 5 mg/kg IP
  Median day of survival: 19.4 days
  Variation by weight: -0.8 g
  Number of survivors: 0/10
  T/C %: 175%
Leukemia P 388; 10 mg/kg IP
  Median day of survival: 12.0 days
  Variation by weight: -1.1 g
  Number of survivors: 0/10
  T/C %: 108%

## Cc1cnc(NCCCN(C)C)c2c1[nH]c1ccc(O)cc12 [Derivative No. 9, 1-(3-dimethylaminopropylamino)-8-hydroxy-4-methyl-5H-pyrido[4,3-b]indole]
[1]; Mus musculus, L1210, 48 h
  IC50: 90 nM
Melanoma B 16; 0.625 mg/kg IP
  Median day of survival: 28 days
  Variation by weight (g): +1.3 g
  Number of survivors: 0/10
  T/C %: 118%
Melanoma B 16; 1.25 mg/kg IP
  Median day of survival: 33.0 days
  Variation by weight (g): +0.1 g
  Number of survivors: 1/10
  T/C %: 139%
Melanoma B 16; 2.5 mg/kg IP
  Median day of survival: 31.25 days
  Variation by weight (g): +0.8 g
  Number of survivors: 1/10
  T/C %: 131%

## CCN(CC)CCCNc1ncc(C)c2[nH]c3ccccc3c12 [Derivative No. 1, 1-(3-diethylaminopropylamino) 4-methyl-5H-pyrido-[4,3-b]indole]
In vivo; 100 mg/kg
  survival at 312 h: 100%
Leukemia P 388; 10 mg/kg IP
  Median day of survival: 15.7 days
  Variation by weight: -0.9 g
  Number of survivors: 0/10
  T/C %: 130%
Leukemia P 388; 50 mg/kg IP
  Median day of survival: 21.0 days
  Variation by weight: -2.6 g
  Number of survivors: 0/10
  T/C %: 174%
Reticulosarcoma M5-M5076
  Median day of survival: 32.7 days
  Variation by weight: -0.6 g
Reticulosarcoma M5-M5076; day D75
  Number of survivors: 0/10
Reticulosarcoma M5-M5076; survival time
  T/C %: 130%

## CCN(CC)CCCNc1ncc(C)c2[nH]c3ccc(OC)cc3c12 [Derivative No. 4, 1-(3-diethylaminopropylamino)-8-methoxy-4-methyl-5H-pyrido[4,3-b]indole]
In vivo; 50 mg/kg
  survival at 312 h: 100%
[1]; Mus musculus, L1210, 48 h
  IC50: 300 nM
Leukemia P 388; 5 mg/kg IP
  Median day of survival: 14.0 days
  Variation by weight (g): +1.1 g
  Number of survivors: 0/10
  T/C %: 121%
Leukemia P 388; 10 mg/kg IP
  Median day of survival: 17.0 days
  Variation by weight (g): +0.7 g
  Number of survivors: 0/10
  T/C %: 147%
Leukemia P 388; 20 mg/kg IP
  Median day of survival: 17.25 days
  Variation by weight: -0.9 g
  Number of survivors: 0/10
  T/C %: 149%
Leukemia P 388; 40 mg/kg IP
  Median day of survival: 20.3 days
  Variation by weight: -3.4 g
  Number of survivors: 0/10
  T/C %: 176%
Leukemia P 388; 80 mg/kg IP
  Median day of survival: 6.6 days
  Variation by weight: -4.8 g
  Number of survivors: 0/10
  T/C %: 57%
Melanoma B 16; 5 mg/kg IP
  Median day of survival: 29.0 days
  Variation by weight: -1.9 g
  Number of survivors: 0/10
  T/C %: 135%

## Cc1cnc(NCCCN(C)C)c2c3ccccc3n(C)c12.Cl.Cl [Derivative No. 17, 4,5-dimethyl 1-(3-dimethylaminopropylamino)-5H-pyrido[4,3-b]indole dihydrochloride]
[1]; Mus musculus, L1210, 48 h
  IC50: 350 nM
Leukemia P 388; 24 mg/kg IP
  Median day of survival: 15.4 days
  Variation by weight: 0.0 g
  Number of survivors: 0/10
  T/C %: 131%
